This passage reports IC50 results from patent publication US20230079819A1, “COMPOUNDS AND USES THEREOF” (Foghorn Therapeutics Inc., priority 2019, published 2023).

One assay addresses T1, BRG-1 (Homo sapiens, UniProt P51532).
T1 construct: made in house; host or cells: High Five insect cells
The assay can be described thus: ATPase catalytic activity of BRG-1, ADP-Glo in vitro biochemical assay. The settings on record: ATPase catalytic activity, 30 nM BRG-1, 400 μM ATP, read-out: BRG1 IP50 (μM)*. Background: In ADP-Glo the light output rises with the ADP produced.

The next assay addresses T2, BRM (Homo sapiens, UniProt P51531).
T2 construct: made in house; host or cells: High Five insect cells
The assay can be described thus: ATPase catalytic activity of BRM, ADP-Glo in vitro biochemical assay. The settings on record: ATPase catalytic activity, 30 nM BRM, 400 μM ATP, read-out: BRM IP50 (μM)*.

T1 sequence (P51532 whole entry): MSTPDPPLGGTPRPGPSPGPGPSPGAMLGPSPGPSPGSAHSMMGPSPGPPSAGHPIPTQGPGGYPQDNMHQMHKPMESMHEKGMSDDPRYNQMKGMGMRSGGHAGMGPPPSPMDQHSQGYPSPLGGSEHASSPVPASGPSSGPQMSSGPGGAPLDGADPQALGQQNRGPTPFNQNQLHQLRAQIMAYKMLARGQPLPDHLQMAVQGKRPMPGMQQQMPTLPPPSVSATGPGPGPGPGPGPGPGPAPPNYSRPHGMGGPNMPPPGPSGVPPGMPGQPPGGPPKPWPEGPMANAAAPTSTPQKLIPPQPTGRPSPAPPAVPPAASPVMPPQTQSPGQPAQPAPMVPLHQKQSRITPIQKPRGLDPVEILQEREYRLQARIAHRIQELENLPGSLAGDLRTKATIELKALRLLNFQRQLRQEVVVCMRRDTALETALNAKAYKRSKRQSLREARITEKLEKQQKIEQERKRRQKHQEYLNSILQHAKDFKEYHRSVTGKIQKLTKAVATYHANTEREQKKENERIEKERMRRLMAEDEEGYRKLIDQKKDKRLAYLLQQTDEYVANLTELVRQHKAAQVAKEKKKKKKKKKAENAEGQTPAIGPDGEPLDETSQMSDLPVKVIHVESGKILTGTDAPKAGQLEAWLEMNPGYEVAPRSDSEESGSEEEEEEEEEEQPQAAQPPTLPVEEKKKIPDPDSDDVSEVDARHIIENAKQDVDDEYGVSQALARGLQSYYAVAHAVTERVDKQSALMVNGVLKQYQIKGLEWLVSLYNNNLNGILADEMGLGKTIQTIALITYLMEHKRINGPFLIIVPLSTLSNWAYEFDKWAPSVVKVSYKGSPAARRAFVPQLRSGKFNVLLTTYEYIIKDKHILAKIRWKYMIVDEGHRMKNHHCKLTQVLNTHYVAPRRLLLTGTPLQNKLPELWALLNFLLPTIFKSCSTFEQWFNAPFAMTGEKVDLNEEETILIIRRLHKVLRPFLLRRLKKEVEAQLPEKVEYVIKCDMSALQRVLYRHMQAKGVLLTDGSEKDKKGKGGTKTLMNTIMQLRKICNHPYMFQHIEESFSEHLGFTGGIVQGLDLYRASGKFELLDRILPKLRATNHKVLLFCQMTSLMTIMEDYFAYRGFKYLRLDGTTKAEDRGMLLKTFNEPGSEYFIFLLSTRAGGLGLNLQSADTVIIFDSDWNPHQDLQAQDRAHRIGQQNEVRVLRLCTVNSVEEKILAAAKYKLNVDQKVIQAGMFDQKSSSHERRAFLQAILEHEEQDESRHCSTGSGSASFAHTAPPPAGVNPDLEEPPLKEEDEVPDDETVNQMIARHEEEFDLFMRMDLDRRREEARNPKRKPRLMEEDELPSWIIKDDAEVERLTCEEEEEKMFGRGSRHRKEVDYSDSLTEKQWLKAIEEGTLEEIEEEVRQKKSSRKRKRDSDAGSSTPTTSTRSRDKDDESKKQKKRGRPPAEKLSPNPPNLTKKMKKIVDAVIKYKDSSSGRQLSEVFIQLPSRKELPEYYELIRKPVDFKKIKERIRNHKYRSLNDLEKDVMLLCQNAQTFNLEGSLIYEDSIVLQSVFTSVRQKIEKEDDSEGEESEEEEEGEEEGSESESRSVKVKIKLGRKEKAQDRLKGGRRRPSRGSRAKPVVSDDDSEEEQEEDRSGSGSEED
T2 sequence (P51531 whole entry): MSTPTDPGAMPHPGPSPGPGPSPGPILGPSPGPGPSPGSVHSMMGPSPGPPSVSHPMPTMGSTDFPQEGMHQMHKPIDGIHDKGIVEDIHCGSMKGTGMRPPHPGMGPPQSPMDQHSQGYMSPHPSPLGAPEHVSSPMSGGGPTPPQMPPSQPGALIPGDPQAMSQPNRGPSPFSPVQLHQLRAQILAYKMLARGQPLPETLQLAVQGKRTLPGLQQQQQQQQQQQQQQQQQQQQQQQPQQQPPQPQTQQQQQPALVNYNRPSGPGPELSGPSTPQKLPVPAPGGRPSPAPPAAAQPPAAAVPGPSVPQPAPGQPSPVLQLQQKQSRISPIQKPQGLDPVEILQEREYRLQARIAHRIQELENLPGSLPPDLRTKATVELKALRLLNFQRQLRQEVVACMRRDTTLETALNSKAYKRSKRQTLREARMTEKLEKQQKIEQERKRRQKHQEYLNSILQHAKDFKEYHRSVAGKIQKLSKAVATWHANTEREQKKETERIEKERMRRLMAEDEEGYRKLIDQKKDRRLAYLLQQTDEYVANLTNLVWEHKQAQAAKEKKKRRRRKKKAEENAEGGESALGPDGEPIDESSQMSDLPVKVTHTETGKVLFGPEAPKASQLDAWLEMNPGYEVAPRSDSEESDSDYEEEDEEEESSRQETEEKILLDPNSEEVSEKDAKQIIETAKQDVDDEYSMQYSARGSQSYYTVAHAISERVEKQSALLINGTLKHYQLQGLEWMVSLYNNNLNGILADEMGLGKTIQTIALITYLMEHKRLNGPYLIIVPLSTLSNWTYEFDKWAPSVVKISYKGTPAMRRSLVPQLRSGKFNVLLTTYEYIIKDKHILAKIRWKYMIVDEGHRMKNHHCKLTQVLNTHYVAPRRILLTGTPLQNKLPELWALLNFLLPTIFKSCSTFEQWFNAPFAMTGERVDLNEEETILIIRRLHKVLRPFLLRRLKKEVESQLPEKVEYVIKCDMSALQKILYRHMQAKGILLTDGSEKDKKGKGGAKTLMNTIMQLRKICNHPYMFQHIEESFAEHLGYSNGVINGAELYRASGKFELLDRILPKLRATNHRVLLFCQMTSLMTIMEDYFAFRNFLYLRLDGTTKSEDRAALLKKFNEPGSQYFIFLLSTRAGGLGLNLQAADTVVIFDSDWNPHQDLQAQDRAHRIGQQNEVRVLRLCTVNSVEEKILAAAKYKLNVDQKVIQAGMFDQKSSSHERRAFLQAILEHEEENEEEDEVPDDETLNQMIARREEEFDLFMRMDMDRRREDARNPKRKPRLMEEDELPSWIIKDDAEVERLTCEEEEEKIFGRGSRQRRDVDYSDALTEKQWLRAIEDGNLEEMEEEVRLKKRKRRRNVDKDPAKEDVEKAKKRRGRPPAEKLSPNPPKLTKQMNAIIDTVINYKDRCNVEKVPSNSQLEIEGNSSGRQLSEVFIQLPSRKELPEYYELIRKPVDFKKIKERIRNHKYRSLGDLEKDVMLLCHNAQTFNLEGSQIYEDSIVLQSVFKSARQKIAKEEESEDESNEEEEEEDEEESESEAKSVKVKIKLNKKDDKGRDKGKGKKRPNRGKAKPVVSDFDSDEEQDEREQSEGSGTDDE

On to `CC(Oc1ccccc1)c1cccc(-c2csc(NC(=O)CNC(=O)c3ccn(S(C)(=O)=O)c3)n2)c1` (stereo not drawn) [Compound 103, 1-(methylsulfonyl)-N-(2-oxo-2-((4-(3-(1-phenoxyethyl)phenyl)thiazol-2-yl)amino)ethyl)-1H-pyrrole-3-carboxamide], for which the IC50 on BRG-1 and at BRM was greater than 0.1 µM throughout.

Regarding `CS(=O)(=O)n1ccc(C(=O)NCC(=O)Nc2nc(-c3cccc(COc4ccccc4)c3)cs2)c1` [Compound 104, 1-(methylsulfonyl)-N-(2-oxo-2-((4-(3-(phenoxymethyl)phenyl)thiazol-2-yl)amino)ethyl)-1H-pyrrole-3-carboxamide], the IC50 on BRG-1 and at BRM was greater than 0.01 µM throughout.

For the compound `CS(=O)(=O)n1ccc(C(=O)NCC(=O)Nc2nc(-c3cccc(CO[C@H]4CC[C@H](O)CC4)c3)cs2)c1` [Compound 105, N-(2-((4-(3-((((1R,4R)-4-hydroxycyclohexyl)oxy)methyl)phenyl)thiazol-2-yl)amino)-2-oxoethyl)-1-(methylsulfonyl)-1H-pyrrole-3-carboxamide], the results for the IC50 on BRG-1 and at BRM were less than 0.01 µM and greater than 0.01 µM, respectively.

As for `CS(=O)(=O)n1ccc(C(=O)NCC(=O)Nc2nc(-c3cccc(OCc4ccncc4)c3)cs2)c1` [Compound 106, 1-(methylsulfonyl)-N-(2-oxo-2-((4-(3-(pyridin-4-ylmethoxy)phenyl)thiazol-2-yl)amino)ethyl)-1H-pyrrole-3-carboxamide], the IC50 at BRG-1 and on BRM was less than 0.01 µM throughout.

As to `CS(=O)(=O)n1ccc(C(=O)NCC(=O)Nc2nc(-c3cccc(COc4ccccn4)c3)cs2)c1` [Compound 107, 1-(methylsulfonyl)-N-(2-oxo-2-((4-(3-((pyridin-2-yloxy)methyl)phenyl)thiazol-2-yl)amino)ethyl)-1H-pyrrole-3-carboxamide], the IC50 at BRG-1 and at BRM was greater than 0.01 µM each time.

For `CS(=O)(=O)n1ccc(C(=O)NCC(=O)Nc2nc(-c3cccc(COc4ccncc4)c3)cs2)c1` [Compound 108, 1-(methylsulfonyl)-N-(2-oxo-2-((4-(3-((pyridin-4-yloxy)methyl)phenyl)thiazol-2-yl)amino)ethyl)-1H-pyrrole-3-carboxamide], the figures for the IC50 at BRG-1 and on BRM were greater than 0.01 µM and less than 0.01 µM, respectively.

Regarding `CN1Cc2ccc(-c3csc(NC(=O)CNC(=O)c4ccn(S(C)(=O)=O)c4)n3)cc2CC1=O` [Compound 109, N-(2-((4-(2-methyl-3-oxo-1,2,3,4-tetrahydroisoquinolin-6-yl)thiazol-2-yl)amino)-2-oxoethyl)-1-(methylsulfonyl)-1H-pyrrole-3-carboxamide], the IC50 at BRG-1 and on BRM was greater than 0.01 µM throughout.

Turning to `CS(=O)(=O)n1ccc(C(=O)NCC(=O)Nc2nc(-c3cccc(OCC4COC4)c3)cs2)c1` [Compound 110, 1-(methylsulfonyl)-N-(2-((4-(3-(oxetan-3-ylmethoxy)phenyl)thiazol-2-yl)amino)-2-oxoethyl)-1H-pyrrole-3-carboxamide], the IC50 on BRG-1 and on BRM was greater than 0.01 µM throughout.

As for `CS(=O)(=O)n1ccc(C(=O)NCC(=O)Nc2nc(C3CCCN(c4ccncc4)C3)cs2)c1` (stereo not drawn) [Compound 111], the IC50 at BRG-1 and on BRM was greater than 0.1 µM in each case.

As to `Cn1ccc2ccc(-c3csc(NC(=O)CNC(=O)c4ccn(S(C)(=O)=O)c4)n3)cc2c1=O` [Compound 112, N-(2-((4-(2-methyl-1-oxo-1,2-dihydroisoquinolin-7-yl)thiazol-2-yl)amino)-2-oxoethyl)-1-(methylsulfonyl)-1H-pyrrole-3-carboxamide], the IC50 at BRG-1 and at BRM was less than 0.01 µM in each case.

`CS(=O)(=O)n1ccc(C(=O)NCC(=O)Nc2nc(-c3ccn(-c4ccncc4)n3)cs2)c1` [Compound 113, 1-(methylsulfonyl)-N-(2-oxo-2-((4-(1-(pyridin-4-yl)-1H-pyrazol-3-yl)thiazol-2-yl)amino)ethyl)-1H-pyrrole-3-carboxamide]: the IC50 on BRG-1 and at BRM was greater than 0.1 µM in each case.

For `CS(=O)(=O)n1ccc(C(=O)NCC(=O)Nc2nc(-c3cccc(C4CCN(CC(F)(F)F)CC4)c3)cs2)c1` [Compound 114, 1-(methylsulfonyl)-N-(2-oxo-2-((4-(3-(1-(2,2,2-trifluoroethyl)piperidin-4-yl)phenyl)thiazol-2-yl)amino)ethyl)-1H-pyrrole-3-carboxamide], the IC50 on BRG-1 and at BRM was greater than 0.1 µM throughout.

Regarding `Cc1nccn1-c1cccc(-c2csc(NC(=O)CNC(=O)c3ccn(S(C)(=O)=O)c3)n2)c1` [Compound 115, N-(2-((4-(3-(2-methyl-1H-imidazol-1-yl)phenyl)thiazol-2-yl)amino)-2-oxoethyl)-1-(methylsulfonyl)-1H-pyrrole-3-carboxamide], the IC50 on BRG-1 and at BRM was greater than 0.1 µM in each case.

Take `CN(C(=O)c1cccc(-c2csc(NC(=O)CNC(=O)c3ccn(S(C)(=O)=O)c3)n2)c1)c1ccccc1` [Compound 116, N-(2-((4-(3-(methyl(phenyl)carbamoyl)phenyl)thiazol-2-yl)amino)-2-oxoethyl)-1-(methylsulfonyl)-1H-pyrrole-3-carboxamide]: the IC50 at BRG-1 and at BRM was greater than 1 µM each time.

In the case of `CS(=O)(=O)n1ccc(C(=O)NCC(=O)Nc2nc(-c3cccc(C(=O)Nc4ccncc4)c3)cs2)c1` [Compound 117, 1-(methylsulfonyl)-N-(2-oxo-2-((4-(3-(pyridin-4-ylcarbamoyl)phenyl)thiazol-2-yl)amino)ethyl)-1H-pyrrole-3-carboxamide], the IC50 on BRG-1 and on BRM was greater than 0.01 µM each time.

For the compound `CN1CC(OCc2cccc(-c3csc(NC(=O)CNC(=O)c4ccn(C(C)(C)C)c4)n3)c2)C1` [Compound 118, 1-(tert-butyl)-N-(2-((4-(3-(((1-methylazetidin-3-yl)oxy)methyl)phenyl)thiazol-2-yl)amino)-2-oxoethyl)-1H-pyrrole-3-carboxamide], the IC50 on BRG-1 and at BRM was greater than 1 µM each time.

With `Cn1ccc(OCc2cccc(-c3csc(NC(=O)CNC(=O)c4ccn(C(C)(C)C)c4)n3)c2)n1` [Compound 119, 1-(tert-butyl)-N-(2-((4-(3-(((1-methyl-1H-pyrazol-3-yl)oxy)methyl)phenyl)thiazol-2-yl)amino)-2-oxoethyl)-1H-pyrrole-3-carboxamide], the figures for the IC50 on BRG-1 and on BRM were greater than 0.1 µM and greater than 0.01 µM, respectively.

As for `COc1cccc(-c2csc(NC(=O)CNC(=O)c3ccn(C(C)(C)C)c3)n2)c1` [Compound 120, 1-(tert-butyl)-N-(2-((4-(3-methoxyphenyl)thiazol-2-yl)amino)-2-oxoethyl)-1H-pyrrole-3-carboxamide], the IC50 on BRG-1 was greater than 0.1 µM; on BRM, greater than 0.01 µM.

`COc1cccc(-c2csc(NC(=O)CNC(=O)c3ccn(S(C)(=O)=O)c3)n2)c1` [Compound 121, N-(2-((4-(3-methoxyphenyl)thiazol-2-yl)amino)-2-oxoethyl)-1-(methylsulfonyl)-1H-pyrrole-3-carboxamide]: the IC50 on BRG-1 and at BRM was greater than 0.01 µM each time.

Take `CC(C)(C)n1ccc(C(=O)NCC(=O)Nc2nc(-c3cccc(OCC4COC4)c3)cs2)c1` [Compound 122, 1-(tert-butyl)-N-(2-((4-(3-(oxetan-3-ylmethoxy)phenyl)thiazol-2-yl)amino)-2-oxoethyl)-1H-pyrrole-3-carboxamide]: the IC50 at BRG-1 and at BRM was greater than 0.01 µM each time.

Turning to `Cn1ccc2ccc(-c3csc(NC(=O)CNC(=O)c4ccn(C(C)(C)C)c4)n3)cc2c1=O` [Compound 123, 1-(tert-butyl)-N-(2-((4-(2-methyl-1-oxo-1,2-dihydroisoquinolin-7-yl)thiazol-2-yl)amino)-2-oxoethyl)-1H-pyrrole-3-carboxamide], the IC50 is greater than 0.01 µM at BRG-1 and less than 0.01 µM on BRM.

Regarding `CN1Cc2ccc(-c3csc(NC(=O)CNC(=O)c4ccn(C(C)(C)C)c4)n3)cc2CC1=O` [Compound 124, 1-(tert-butyl)-N-(2-((4-(2-methyl-3-oxo-1,2,3,4-tetrahydroisoquinolin-6-yl)thiazol-2-yl)amino)-2-oxoethyl)-1H-pyrrole-3-carboxamide], the figures for the IC50 at BRG-1 and on BRM were greater than 0.1 µM and greater than 0.01 µM, respectively.

With `CC(C)(C)n1ccc(C(=O)NCC(=O)Nc2nc(-c3cccc(COC4CCOCC4)c3)cs2)c1` [Compound 125, 1-(tert-butyl)-N-(2-oxo-2-((4-(3-(((tetrahydro-2H-pyran-4-yl)oxy)methyl)phenyl)thiazol-2-yl)amino)ethyl)-1H-pyrrole-3-carboxamide], the IC50 on BRG-1 and at BRM was greater than 0.01 µM each time.

For the compound `CC(OC1CCOCC1)c1cccc(-c2csc(NC(=O)CNC(=O)c3ccn(C(C)(C)C)c3)n2)c1` (stereo not drawn) [Compound 126, 1-(tert-butyl)-N-(2-oxo-2-((4-(3-(1-((tetrahydro-2H-pyran-4-yl)oxy)ethyl)phenyl)thiazol-2-yl)amino)ethyl)-1H-pyrrole-3-carboxamide], the IC50 at BRG-1 was greater than 0.1 µM; at BRM it was greater than 0.01 µM.

Turning to `CN1CCC(OCc2cccc(-c3csc(NC(=O)CNC(=O)c4ccn(C(C)(C)C)c4)n3)c2)CC1` [Compound 127, 1-(tert-butyl)-N-(2-((4-(3-(((1-methylpiperidin-4-yl)oxy)methyl)phenyl)thiazol-2-yl)amino)-2-oxoethyl)-1H-pyrrole-3-carboxamide], the IC50 on BRG-1 and on BRM was greater than 0.1 µM in each case.

Consider `CN1CCC(OCc2cccc(-c3csc(NC(=O)CNC(=O)c4ccn(C(C)(C)C)c4)n3)c2)C(F)(F)C1` (stereo not drawn) [Compound 128, 1-(tert-butyl)-N-(2-((4-(3-(((3,3-difluoro-1-methylpiperidin-4-yl)oxy)methyl)phenyl)thiazol-2-yl)amino)-2-oxoethyl)-1H-pyrrole-3-carboxamide], for which the IC50 on BRG-1 and on BRM was greater than 0.1 µM each time.

Take `CC(C)(C)n1ccc(C(=O)NCC(=O)Nc2nc(-c3cccc(COC4CCOC4)c3)cs2)c1` (stereo not drawn) [Compound 129, 1-(tert-butyl)-N-(2-oxo-2-((4-(3-(((tetrahydrofuran-3-yl)oxy)methyl)phenyl)thiazol-2-yl)amino)ethyl)-1H-pyrrole-3-carboxamide]: the IC50 at BRG-1 and at BRM was greater than 0.01 µM throughout.
